Marks after values point to notes of the source that are not given here.
Tested on: brain of rats subjected to severe traumatic brain injury (sTBI)
Assay: HPLC of purine-pyrimidine metabolites (energy state, oxidative/nitrosative stress) in brain after sTBI (Example 1)
Assay type: in vivo, rat
Protocol: They were divided into three groups:
1) n=6 animals subjected to sTBI, with drug administration after 30 minutes and sacrifice at 2 days post-TBI (Acute phase 1)
2) n=6 animals subjected to sTBI, with drug administration after 30 minutes and sacrifice at 7 days post-TBI (Acute phase 2).
3) n=6 animals subjected to sTBI, with drug administration after 3 days and sacrifice at 7 days post-TBI (Chronic phase).
The drug treatment was a subcutaneous injection of 0.5 ml of LMW-DS (15 mg/kg) and administered according to the aforementioned schematic protocol.
After the wet weight (w.w.) determination, tissue preparation was affected as previously disclosed (Tavazzi et al., Neurosurgery. 2005; 56: 582-589; Vagnozzi et al., Neurosurgery. 2007; 61: 379-388; Tavazzi et al., Neurosurgery. 2007; 61: 390-395; Amorini et al., J Cell Mol Med. 2017; 21: 530-542.). Briefly, whole brain homogenization was performed with 7 ml of ice-cold, nitrogen-saturated, precipitating solution composed by CH3CN+10 mM KH2PO4, pH 7.40, (3:1; v:v), and using an Ultra-Turrax set at 24,000 rpm/min (Janke & Kunkel, Staufen, Germany). After centrifugation at 20,690×g, for 10 min at 4° C., the clear supernatants were saved, pellets were supplemented with 3 ml of the precipitating solution and homogenized again as described above. A second centrifugation was performed (20,690×g, for 10 min at 4° C.), pellets were saved, supernatants combined with those previously obtained, extracted by vigorous agitation with a double volume of HPLC-grade CHCl3 and centrifuged as above. The upper aqueous phases containing water-soluble low-molecular weight compounds were collected, subjected to chloroform washings for two more times (this procedure allowed the removal of all the organic solvent and of any lipid soluble compound from the buffered tissue extracts), adjusted in volumes with 10 mM KH2PO4, pH 7.40, to have ultimately aqueous 10% tissue homogenates and saved at −80° C. until assayed.
Aliquots of each deproteinized tissue samples were filtered through a 0.45 μm HV Millipore filter and loaded (200 μl) onto a Hypersil C-18, 250×4.6 mm, 5 μm particle size column, provided with its own guard column (Thermo Fisher Scientific, Rodano, Milan, Italy) and connected to an HPLC apparatus consisting of a Surveyor System (Thermo Fisher Scientific, Rodano, Milan, Italy) with a highly sensitive diode array detector (equipped with a 5 cm light path flow cell) and set up between 200 and 300 nm wavelength. Data acquisition and analysis were performed by a PC using the ChromQuest® software package provided by the HPLC manufacturer.
Metabolites belonging to the purine-pyrimidine profiles (listed below) and related to tissue energy state, mitochondrial function and relative to oxidative-nitrosative stresses were separated, in a single chromatographic run, according to slight modifications of existing ion-pairing HPLC methods (Lazzarino et al., Anal Biochem. 2003; 322: 51-59; Tavazzi et al., Clin Biochem. 2005; 38: 997-1008). Assignment and calculation of the compounds of interest in chromatographic runs of tissue extracts were carried out at the proper wavelengths (206, 234 and 260 nm) by comparing retention times, absorption spectra and areas of peaks with those of peaks of chromatographic runs of freshly-prepared ultra-pure standard mixtures with known concentrations. […]

[1] = Acute phase 1: 15 mg/kg s.c. 30 min post-sTBI, sacrifice day 2
[2] = Acute phase 2: 15 mg/kg s.c. 30 min post-sTBI, sacrifice day 7

sodium salt of dextran sulfate [LMW-DS]
MDA levels (15 mg/kg s.c. after sTBI): significant reduction
ascorbic acid and GSH levels (15 mg/kg s.c. after sTBI): significant improvement
levels of NAA and its substrates (15 mg/kg s.c. after sTBI): significant improvements
nitrate concentrations (15 mg/kg s.c., acute and chronic phases of sTBI): significantly decreased
ADO brain concentration [1]: 71.67 ± 15.87 nmol/g (w.w.)
ADP brain concentration [1]: 279.34 ± 29.59^b nmol/g (w.w.)
ADP-ribose brain concentration [1]: 137.87 ± 43.18^a nmol/g (w.w.)
AMP brain concentration [1]: 53.61 ± 17.91^a, c, j nmol/g (w.w.)
ATP brain concentration [1]: 1464.25 ± 99.09^a, h nmol/g (w.w.)
CDP brain concentration [1]: 25.53 ± 6.83^a, c nmol/g (w.w.)
CDP choline brain concentration [1]: 10.93 ± 3.22^b, h nmol/g (w.w.)
CTP brain concentration [1]: 18.98 ± 6.58^a, g nmol/g (w.w.)
CoA-SH brain concentration [1]: 21.61 ± 3.42^a, h nmol/g (w.w.)
GDP brain concentration [1]: 158.72 ± 24.57^a nmol/g (w.w.)
GDP glucose brain concentration [1]: 38.71 ± 6.86 nmol/g (w.w.)
GMP brain concentration [1]: 177.00 ± 32.39^a, g nmol/g (w.w.)
GSH brain concentration [1]: 2649.50 ± 397.31^a, d nmol/g (w.w.)
GSSG brain concentration [1]: 185.21 ± 48.10 nmol/g (w.w.)
GTP brain concentration [1]: 255.29 ± 45.21^a, g nmol/g (w.w.)
IMP brain concentration [1]: 67.71 ± 10.63^g, i nmol/g (w.w.)
MDA brain concentration [1]: 12.47 ± 2.09^a, c, g nmol/g (w.w.)
NAA brain concentration [1]: 6147.91 ± 989.12^a nmol/g (w.w.)
NADH brain concentration [1]: 15.49 ± 2.05^c, j nmol/g (w.w.)
NADPH brain concentration [1]: 6.22 ± 1.73 nmol/g (w.w.)
NADP^+ brain concentration [1]: 17.95 ± 3.28^a nmol/g (w.w.)
NAD^+ brain concentration [1]: 404.63 ± 51.10^a, c, i nmol/g (w.w.)
NO2 brain concentration [1]: 216.03 ± 41.74^a nmol/g (w.w.)
NO3 brain concentration [1]: 210.64 ± 91.95^d nmol/g (w.w.)
UDP brain concentration [1]: 61.83 ± 10.23^a, g nmol/g (w.w.)
UDP-Gal brain concentration [1]: 119.45 ± 12.50 nmol/g (w.w.)
UDP-GalNac brain concentration [1]: 19.17 ± 4.01^a nmol/g (w.w.)
UDP-Glc brain concentration [1]: 32.14 ± 4.59^g nmol/g (w.w.)
UDP-GlcNac brain concentration [1]: 95.85 ± 19.73^h, i nmol/g (w.w.)
UMP brain concentration [1]: 107.80 ± 21.62 nmol/g (w.w.)
UTP brain concentration [1]: 123.46 ± 15.42^d nmol/g (w.w.)
acetyl-CoA brain concentration [1]: 21.56 ± 6.22^a, g, i nmol/g (w.w.)
adenine brain concentration [1]: 44.82 ± 6.31^a, d, g nmol/g (w.w.)
ascorbic acid brain concentration [1]: 3733.10 ± 277.88^a, d nmol/g (w.w.)
creatinine brain concentration [1]: 24.55 ± 3.20^b, g, i nmol/g (w.w.)
cytidine brain concentration [1]: 15.40 ± 3.04 nmol/g (w.w.)
cytosine brain concentration [1]: 17.69 ± 2.50^b, d nmol/g (w.w.)
guanine brain concentration [1]: 4.80 ± 1.24^b nmol/g (w.w.)
guanosine brain concentration [1]: 20.71 ± 5.66 nmol/g (w.w.)
hypoxanthine brain concentration [1]: 14.47 ± 2.87^a nmol/g (w.w.)
inosine brain concentration [1]: 92.55 ± 31.20^c nmol/g (w.w.)
malonyl-CoA brain concentration [1]: 12.33 ± 1.82^b nmol/g (w.w.)
orotic acid brain concentration [1]: 8.80 ± 2.45^b, h, j nmol/g (w.w.)
thymidine brain concentration [1]: 0.69 ± 0.11 nmol/g (w.w.)
uracil brain concentration [1]: 14.56 ± 5.44 nmol/g (w.w.)
uric acid brain concentration [1]: 23.62 ± 3.77^a, d, h nmol/g (w.w.)
uridine brain concentration [1]: 76.35 ± 12.85^a, c nmol/g (w.w.)
xanthine brain concentration [1]: 9.46 ± 2.34^d nmol/g (w.w.)
β-pseudouridine brain concentration [1]: 6.65 ± 1.309^g, i nmol/g (w.w.)
ADO brain concentration [2]: 82.11 ± 16.51^a nmol/g (w.w.)
ADP brain concentration [2]: 264.07 ± 28.29^b, e, j nmol/g (w.w.)
ADP-ribose brain concentration [2]: 141.96 ± 23.56^a, e, j nmol/g (w.w.)
AMP brain concentration [2]: 57.70 ± 23.01^a, e, j nmol/g (w.w.)
ATP brain concentration [2]: 1632.23 ± 90.07^a, e, j nmol/g (w.w.)
CDP brain concentration [2]: 24.29 ± 6.76^a nmol/g (w.w.)
CDP choline brain concentration [2]: 6.91 ± 1.86 nmol/g (w.w.)
CMP brain concentration [2]: 15.68 ± 2.12^f, j nmol/g (w.w.)
CTP brain concentration [2]: 32.63 ± 3.99^e, i nmol/g (w.w.)
CoA-SH brain concentration [2]: 30.57 ± 6.02^f nmol/g (w.w.)
GDP brain concentration [2]: 126.70 ± 31.35^a, j nmol/g (w.w.)
GDP glucose brain concentration [2]: 49.25 ± 10.33^a nmol/g (w.w.)
GMP brain concentration [2]: 91.47 ± 12.35^e, i nmol/g (w.w.)
GSH brain concentration [2]: 2821.50 ± 242.82^a, e nmol/g (w.w.)
GSSG brain concentration [2]: 219.54 ± 53.36 nmol/g (w.w.)
GTP brain concentration [2]: 336.65 ± 35.18^a, e, j nmol/g (w.w.)
IMP brain concentration [2]: 102.63 ± 22.09^a nmol/g (w.w.)
MDA brain concentration [2]: 4.82 ± 1.73^a, e, i nmol/g (w.w.)
NAA brain concentration [2]: 7262.84 ± 749.73^a, e nmol/g (w.w.)
NADH brain concentration [2]: 13.12 ± 4.19^e nmol/g (w.w.)
NADPH brain concentration [2]: 7.05 ± 2.21 nmol/g (w.w.)
NADP^+ brain concentration [2]: 21.27 ± 4.19^b, e, j nmol/g (w.w.)
NAD^+ brain concentration [2]: 401.18 ± 34.53^a, e, i nmol/g (w.w.)
